Assay type in all cases: cell-based
Assay [1] relates to EBV in Burkitt's lymphoma cell lines (Mutul, BL74) and an LCL. Put plainly: EBV activation (VCA western blot) in Burkitt's lymphoma cell lines and LCL. Here is the method:
To ensure that equal amounts of each sample were analyzed, the gels were stained with Coomassie blue and the loadings were adjusted to make them equal. […] Next the PEP003 and PEP004 were assayed on two Burkitt's lymphoma cell lines and an LCL. This time only concentrations of 10^−5 and 10^−7 were used.
In general terms: Immunoblotting shows a protein as a band on a membrane.

Assay [2] deals with HIV-1 LAI strain in U1 cells. The experiment in a line: Activation of latent HIV from U1 cells (p24 ELISA). Conditions: 20 hr culture. The text has this:
A latently HIV-1 infected cell line (U1), derived from the promonocytic cell line U937 after infection with HIV-1 LAI strain, was used in these experiments. In the absence of activation, no or little virus (measured as p24 production) is produced by the U1 cell line. Phorbol esters are known to activate virus production from these cells (Tobiume et al., 1998) and so TPA/PMA was used as a positive control in these experiments.
Supernatants were collected and viral replication monitored by determination of the amounts of HIV p24 gag protein in the culture supernatants by ELISA, using a NEN Life Science HIV-1 p24 ELISA kit. p24 values were calculated from OD values using a standard curve.
(ELISA stands for enzyme-linked immunosorbent assay.)

In a further assay the target is T1, PKCα (Homo sapiens, UniProt P17252).
T1 construct: host or cells: HeLa cells
As to conditions: HeLa, one hour. The protocol: (§1) Five EGFP-PKC isoforms (Clontech) were available for this experiment, enabling the screening of the three predominant PKC families (i.e. classical, novel and atypical PKCs). The members of the various PKC families are α, β, and γ (classical), θ (novel) and ζ (atypical).
(§2) HeLa cells were plated out in a 24-well plate containing coverslips and transfected with PKC isoforms fused to EGFP, using a commercially available effectine-transfection kit (QIAGEN, Pty. Ltd.). Cells were exposed to the transfection reagents for 16-24 hr. Subsequently, transfected cells were treated for one hour with TPA (100 ng/mL), bryostatin-1 (5 pg/mL), PEP003 (2.25 μg/mL; 5 μM) or PEP005 ([…]) 1.5 μM). Following treatment, cells were fixed on coverslips and mounted on glass slides. The slides were subsequently examined visually by fluorescence microscopy, photographed, and over 150 cells were counted/treatment/PKC isoform. Counted cells were classified according to the localisation of the PKC-EGFP fluorescence as either cytoplasmic or plasma membrane using ImagePro™ 4.1 (FIG. 5). […] The number of these cells was also counted.

Assay [3] deals with Peripheral blood mononuclear cells (granulocytes, monocytes, lymphocytes). Put plainly: Respiratory burst, DCFH-DA H2O2 flow cytometry. As to conditions: bisindolylmaleimide 10 ng/mL or 1 ng/mL. The protocol: Experiments were also carried out using 2′,7′-dichlorofluorescein diacetate (DCFH-DA) to measure the production of H2O2. (J P Robinson, Oxidative burst methods, in Handbook of Flow Cytometry Methods, Wiley-Liss Inc, pp 147-149, 1993). H2O2 oxidizes the non-fluorescent probe (DCFH-DA) to a fluorescent probe that can then be detected by a flow cytometer. Peripheral blood mononuclear cells (PBMC) were extracted from a donor blood sample by lysis of heparinized blood and used in a suspension of 1×10^6/mL of phosphate buffer, pH 7.3. The cells were then incubated with DCFH-DA (1 μL/mL of 20 mM stock) for 15 minutes to allow it to be taken up and trapped by hydrolysis with cellular esterases. The cells were then stimulated by test compounds for 15 min at 37° C. Controls included in the experiment were unloaded control (cells with no DCFH-DA) and loaded control (cells with DCFH-DA, but no stimulation). These were used to monitor the non-specific oxidation of unstimulated cells. The cells were then analyzed on the flow cytometer (excitation at 488 nm, emission at 525±20 nm), gating each sample for individual cell populations—granulocytes, monocytes and lymphocytes (Table 3).

The target in the next assay is T2, PKCζ (Homo sapiens, UniProt Q05513).
T2 construct: host or cells: HeLa cells
T2 sequence (Q05513 1-592): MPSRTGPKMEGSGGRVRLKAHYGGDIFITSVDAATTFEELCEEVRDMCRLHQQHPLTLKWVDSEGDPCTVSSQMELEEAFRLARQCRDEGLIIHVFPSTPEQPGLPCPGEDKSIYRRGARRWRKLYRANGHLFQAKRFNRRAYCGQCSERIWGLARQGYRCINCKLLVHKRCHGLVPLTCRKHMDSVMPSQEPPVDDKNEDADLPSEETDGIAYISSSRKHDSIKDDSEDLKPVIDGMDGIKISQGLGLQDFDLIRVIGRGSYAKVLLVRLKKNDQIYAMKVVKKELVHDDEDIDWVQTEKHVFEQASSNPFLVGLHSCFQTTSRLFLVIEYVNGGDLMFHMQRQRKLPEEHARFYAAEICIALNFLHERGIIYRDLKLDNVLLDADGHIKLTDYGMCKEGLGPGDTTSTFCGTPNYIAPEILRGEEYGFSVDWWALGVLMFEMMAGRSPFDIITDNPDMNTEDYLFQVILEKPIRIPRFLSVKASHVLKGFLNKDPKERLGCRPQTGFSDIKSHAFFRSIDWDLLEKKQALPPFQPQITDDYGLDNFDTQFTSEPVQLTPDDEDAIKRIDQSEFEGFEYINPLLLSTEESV
Put plainly: EGFP-PKC translocation in HeLa cells (PKCζ). As to conditions: one hour, same concentrations. The protocol:
as §1
as §2, with “counted. Results are presented as an average and standard deviation of percentages of cells (Table 1).” for “counted.”

In the next assay the target is T3, PKCγ (Homo sapiens, UniProt P05129).
T3 construct: host or cells: HeLa cells
Put plainly: EGFP-PKC translocation in HeLa cells (PKCγ). Conditions: one hour. The protocol: as §1
as §2, with “counted. Results are presented as an average and standard deviation of percentages of cells (Table 1).” for “counted.”

SMILES strings stand for the structures.

This note sets out measurements from patent US9314458B2, “Topical use of ingenol-3-angelate or a salt thereof to treat skin cancer” (LEO Laboratories Limited, priority 2000, dated 2016).

Consider `CCCCCCCCCCCCCC(=O)O[C@@H]1[C@@H](C)[C@@]2(O)[C@@H](C=C(CO)C[C@]3(O)C(=O)C(C)=C[C@@H]23)C2C(C)(C)[C@@]21OC(C)=O` (single isomer, unassigned) [TPA], for which, in assay [1], the “induction of VCA in Mutul cells” value is given as “did not”. Further, the “activation of HIV from U1 cells (p24 production)” value in assay [2] is given as “activated HIV from U1 cells”. Further, the “number of PKCα transfected cells displaying Golgi-like fluorescence” value on PKCα is “increase in the number of cells displaying Golgi-like fluorescence”. The “translocation of PKCα from cytoplasm to plasma membrane” value at PKCα (TPA 100 ng/mL, bryostatin-1 5 pg/mL, PEP003 2.25 μg/mL (5 μM)) is given as “translocated from the cytoplasm to the plasma membrane”. The “respiratory burst with bisindolylmaleimide added” value in assay [3] was “blocked”. For the same compound, on PKCζ, the “translocation of PKCζ” value is recorded as “fail to induce translocation”. Further, at PKCγ, the “number of PKCγ transfected cells displaying Golgi-like fluorescence” value was “increase in the number of cells displaying Golgi-like fluorescence”. The “translocation of PKCγ from cytoplasm to plasma membrane” value on PKCγ (TPA 100 ng/mL, bryostatin-1 5 pg/mL, PEP003 2.25 μg/mL (5 μM), PEP005 670 μg/mL (1.5 μM)) is recorded as “translocated from the cytoplasm to the plasma membrane”.
